According to PMC6471485, “Selective Inhibitors of a Human Prolyl Hydroxylase (OGFOD1) Involved in Ribosomal Decoding” (Chemistry (Weinheim an Der Bergstrasse, Germany), 2019):

Molecular target: T1, NO66 (Homo sapiens, UniProt Q9H6W3)
T1 construct: 116-641 were cloned into pFB-LIC-Bse; His (N); made in house; host or cells: Sf9 insect cells
T1 sequence (Q9H6W3 116-641 limits assumed): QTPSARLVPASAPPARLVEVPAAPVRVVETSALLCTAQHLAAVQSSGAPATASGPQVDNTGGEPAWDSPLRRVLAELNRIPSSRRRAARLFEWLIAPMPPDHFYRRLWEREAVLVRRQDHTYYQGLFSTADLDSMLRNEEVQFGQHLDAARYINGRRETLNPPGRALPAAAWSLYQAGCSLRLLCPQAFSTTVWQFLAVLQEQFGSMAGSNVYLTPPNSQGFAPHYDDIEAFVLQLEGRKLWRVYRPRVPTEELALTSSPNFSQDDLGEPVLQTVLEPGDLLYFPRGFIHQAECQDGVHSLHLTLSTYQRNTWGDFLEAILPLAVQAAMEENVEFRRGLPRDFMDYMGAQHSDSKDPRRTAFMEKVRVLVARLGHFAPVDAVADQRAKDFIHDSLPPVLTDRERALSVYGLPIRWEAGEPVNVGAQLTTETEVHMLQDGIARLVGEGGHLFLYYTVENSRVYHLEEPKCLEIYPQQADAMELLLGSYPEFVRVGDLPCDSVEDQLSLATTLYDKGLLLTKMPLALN
Assay: NO66 IC50 determination, RapidFire MS
Type: biochemical
Protocol: reactions were quenched after 4 min. KDM4A inhibition was tested as described previously using a formaldehyde dehydrogenase (FDH) assay.[9] JARID1B and JARID1C inhibition was tested as described previously using reported AlphaScreen-based assays.[10] MINA531-464 and NO66116-641 were cloned into pFB-LIC-Bse, and the N-terminal His-tagged proteins were produced in Sf9 insect cells. The MINA53 peptide substrate Rpl27a […]
(Gly31 – Pro49 […]) and the NO66 peptide substrate Rpl8
(Asn205 – Thr224 […]) were synthesized by Peptide Protein
Research Ltd (Fareham, Hampshire, UK) to >95% purity. IC50 determinations were performed in 384-well polypropylene plates (Greiner Bio One, Cat Number 781096), and compound dispenses were performed using an ECHO 550 acoustic dispenser (Labcyte, Sunnyvale, CA). […]
RapidFire integrator software (Agilent). Percent conversion was calculated in Excel, and IC50 curves were generated using Prism v. […]
Assays consisted of enzyme (2 µM), inhibitor (200 µM), MnCl2 (50 µM), and SYPRO Orange (1:5000 dilution), all prepared in 50 mM HEPES, pH 7.5. […] An Opticon thermal cycler (MJ Research Inc) was used to control temperature and measure fluorescence. […]
CPMG Binding Experiments: Binding of the inhibitors to the proteins was monitored using Carr-Purcell-Meiboom-Gill (CPMG)-edited 1H spectra. […]

Compound | IC50 [µM]
Cn1c(O)c(C(=O)CCc2cccs2)c(=O)n(C)c1=O [compound 42] | > 100
Cn1c(O)c(C(=O)CCc2ccccc2)c(=O)n(C)c1=O [compound 26] | > 100
